According to paper PMC8357487 (Current Research in Pharmacology and Drug Discovery, 2021):
Where two headings read alike, the source gives them in different places.

Tests used:
SARS-CoV-2 [1] = experiment: microbe, parasite or virus in culture; assay type: cell-based
icSARS-CoV-2-mNG = experiment: microbe, parasite or virus in culture; assay type: cell-based, SARS-CoV-2; conditions: for EC50: Severe acute respiratory syndrome coronavirus 2, Caco-2, 48 h, read-out: mean EC50, icSARS-CoV-2-mNG inhibition assay
[2] = Cytotoxicity, MTS method, Calu-3; assay type: cell-based; conditions: human, Calu-3 cells
[3] = Cytotoxicity, MTS method, Caco-2; assay type: cell-based; conditions: human, Caco-2 cells
[4] = Cytotoxicity, MTS method, Huh-7; assay type: cell-based, human; conditions: human, Huh-7 cells
Huh-7 cells = experiment: Cytotoxicity, MTS method, Huh-7; assay type: cell-based, human; conditions: MTS
[5] = monkeys; ref Warren et al., 2016; cited from earlier work
[6] = humans; ref Humeniuk et al., 2020; cited from earlier work
[7] = Cytotoxicity, MTS method, Vero CCL-81; assay type: cell-based; conditions: African monkey, Vero CCL-81 cells
SARS-CoV-2 [8] = conditions: Caco-2 cells; ref Li et al., 2021a; cited from earlier work
[9] = Severe acute respiratory syndrome coronavirus 2, 48 h
[10] = Severe acute respiratory syndrome coronavirus 2, Caco-2, 72 h
[11] = Severe acute respiratory syndrome coronavirus 2, Calu-3, 72 h

Row | Compound | EC50 (SARS-CoV-2 [1]; [9]) [nM] | EC90 (SARS-CoV-2 [1]; [9]) [nM] | EC50 (SARS-CoV-2 [1]; [10]) [nM] | EC90 (SARS-CoV-2 [1]; [10]) [nM] | EC50 (SARS-CoV-2 [1]; [11]) [nM] | EC90 (SARS-CoV-2 [1]; [11]) [nM] | EC50 (icSARS-CoV-2-mNG) [nM] | CC50 [2] [nM] | CC50 [3] [nM] | CC50 [4] [nM] | Cytotoxicity in words (Huh-7 cells) | plasma half-life [5] | plasma half-life [6] [h] | EC50 difference of GS-441524 compared to remdesivir, icSARS-CoV-2-mNG assay (icSARS-CoV-2-mNG; Caco-2 cells) [fold] | CC50 [7] [nM] | Difference in EC50 between GS-441524 and remdesivir (SARS-CoV-2 [8]) [fold]
1 | CCC(CC)COC(=O)[C@H](C)N[P@](=O)(OC[C@H]1O[C@@](C#N)(c2ccc3c(N)ncnn23)[C@H](O)[C@@H]1O)Oc1ccccc1 [Remdesivir] | 700 | 1700 | 1 | 22 | 110 | 490 | 18 | 72800 | > 100000 | 2100 | quite toxic | about 0.4 h | ~1 |  |  | 
2 | N#C[C@@]1(c2ccc3c(N)ncnn23)O[C@H](CO)[C@@H](O)[C@H]1O [GS-441524] | 800 | 1600 | 80 | 1420 | 250 | 2350 | 1300 | > 100000 | > 100000 | > 100000 |  |  |  | 70 | > 100000 | 6
